# Measured values taken from PubChem BioAssay (NCI).
#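 Five concentrations, 48 hours, 96-well plates. At the GI50, growth is halved. Definition used: TGI = concentration required for complete inhibition of growth.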
# Key:
# Experiment in all cases: NCI tumour cell line growth inhibition, 48 h
# [1] = test system: 786-0 renal
# [2] = test system: A549 NSCLC
# [3] = test system: BT-549 breast
# [4] = test system: CAKI-1 renal
# [5] = test system: CCRF-CEM leukemia
# [6] = test system: COLO 205 colon
# [7] = test system: DU-145 prostate
# [8] = test system: EKVX NSCLC
# [9] = test system: HCC-2998 colon
# [10] = test system: HCT-15 colon
# [11] = test system: HOP-62 NSCLC
# [12] = test system: HOP-92 NSCLC
# [13] = test system: HS 578T breast
# [14] = test system: HT29 colon
# [15] = test system: IGROV1 ovarian
# [16] = test system: KM12 colon
# [17] = test system: LOX IMVI melanoma
# [18] = test system: MCF7 breast
# [19] = test system: MDA-MB-231 breast
# [20] = test system: MDA-MB-435
# [21] = test system: NCI-H226 lung
# [22] = test system: NCI-H23 lung
# [23] = test system: NCI-H460 lung
# [24] = test system: NCI-H522 lung
# [25] = test system: NCI/ADR-RES ovarian
# [26] = test system: OVCAR-3 ovarian
# [27] = test system: OVCAR-4 ovarian
# [28] = test system: OVCAR-5 ovarian
# [29] = test system: OVCAR-8 ovarian
# [30] = test system: PC-3 prostate
# [31] = test system: RPMI-8226 leukemia
# [32] = test system: SF-268 CNS
# [33] = test system: SF-295 CNS
# [34] = test system: SF-539 CNS
# [35] = test system: SK-MEL-2 melanoma
# [36] = test system: SK-MEL-28 melanoma
# [37] = test system: SK-MEL-5 melanoma
# [38] = test system: SK-OV-3 ovarian
# [39] = test system: SN12C renal
# [40] = test system: SNB-19 CNS
# [41] = test system: SNB-75 CNS
# [42] = test system: SW-620 colon
# [43] = test system: T-47D breast
# [44] = test system: TK-10 renal
# [45] = test system: U251 CNS
# [46] = test system: UACC-257 melanoma
# [47] = test system: UACC-62 melanoma
# [48] = test system: UO-31 renal
compound,measurement,setting,value
CC(C)(C#N)c1cc(Cn2cncn2)cc(C(C)(C)C#N)c1,GI50,[1],0.892 mM
same,TGI,[1],> 10 mM
same,GI50,[2],0.933 mM
same,TGI,[2],> 10 mM
same,GI50,[3],0.472 mM
same,TGI,[3],> 10 mM
same,GI50,[4],> 10 mM
same,TGI,[4],> 10 mM
same,GI50,[5],0.393 mM
same,TGI,[5],2.48 mM
same,GI50,[6],2.07 mM
same,TGI,[6],> 10 mM
same,GI50,[7],> 10 mM
same,TGI,[7],> 10 mM
same,GI50,[8],0.4 mM
same,TGI,[8],> 10 mM
same,GI50,[9],> 10 mM
same,TGI,[9],> 10 mM
same,GI50,[10],> 10 mM
same,TGI,[10],> 10 mM
same,GI50,[11],0.921 mM
same,TGI,[11],> 10 mM
same,GI50,[12],0.297 mM
same,TGI,[12],2.98 mM
same,GI50,[13],0.289 mM
same,TGI,[13],> 10 mM
same,GI50,[14],3.05 mM
same,TGI,[14],> 10 mM
same,GI50,[15],1.76 mM
same,TGI,[15],> 10 mM
same,GI50,[16],> 10 mM
same,TGI,[16],> 10 mM
same,GI50,[17],> 10 mM
same,TGI,[17],> 10 mM
same,GI50,[18],2.24 mM
same,TGI,[18],> 10 mM
same,GI50,[19],0.539 mM
same,TGI,[19],> 10 mM
same,GI50,[20],> 10 mM
same,TGI,[20],> 10 mM
same,GI50,[21],0.718 mM
same,TGI,[21],> 10 mM
same,GI50,[22],> 10 mM
same,TGI,[22],> 10 mM
same,GI50,[23],3.99 mM
same,TGI,[23],> 10 mM
same,GI50,[24],2.63 mM
same,TGI,[24],> 10 mM
same,GI50,[25],0.477 mM
same,TGI,[25],> 10 mM
same,GI50,[26],> 10 mM
same,TGI,[26],> 10 mM
same,GI50,[27],> 10 mM
same,TGI,[27],> 10 mM
same,GI50,[28],> 10 mM
same,TGI,[28],> 10 mM
same,GI50,[29],> 10 mM
same,TGI,[29],> 10 mM
same,GI50,[30],0.792 mM
same,TGI,[30],> 10 mM
same,GI50,[31],0.183 mM
same,TGI,[31],0.698 mM
same,GI50,[32],> 10 mM
same,TGI,[32],> 10 mM
same,GI50,[33],0.299 mM
same,TGI,[33],> 10 mM
same,GI50,[34],2.45 mM
same,TGI,[34],> 10 mM
same,TGI,[35],3.59 mM
same,GI50,[36],> 10 mM
same,TGI,[36],> 10 mM
same,GI50,[37],0.106 mM
same,TGI,[37],> 10 mM
same,GI50,[38],> 10 mM
same,TGI,[38],> 10 mM
same,GI50,[39],> 10 mM
same,TGI,[39],> 10 mM
same,GI50,[40],> 10 mM
same,TGI,[40],> 10 mM
same,GI50,[41],> 10 mM
same,TGI,[41],> 10 mM
same,GI50,[42],> 10 mM
same,TGI,[42],> 10 mM
same,GI50,[43],6.76 mM
same,TGI,[43],> 10 mM
same,GI50,[44],0.564 mM
same,TGI,[44],> 10 mM
same,GI50,[45],> 10 mM
same,TGI,[45],> 10 mM
same,GI50,[46],> 10 mM
same,TGI,[46],> 10 mM
same,GI50,[47],0.768 mM
same,TGI,[47],> 10 mM
same,GI50,[48],0.72 mM
same,TGI,[48],> 10 mM
